Among the data in patent US20230141600A1, “IMIDAZOPYRAZINE DERIVATIVES” (priority 2020, published 2023) are IC90 values, retold here.

Structures can show the parent of a compound that is named as a salt.

The test system of the first assay is Acinetobacter baumannii ATCC17961. Kind of assay: 90% growth inhibitory concentration (IC90) determination, antimicrobial susceptibility testing. Type of assay: cell-based. Particulars: Acinetobacter baumannii, ATCC17961, 16 h, 90% growth inhibition, Iso-Sensitest broth, OD 600 nm over 16 h, 35±2° C.; read-out: ATCC 17961 IC90. As for the experimental part: Antimicrobial Susceptibility Testing:
90% Growth Inhibitory Concentration (IC90) Determination
The in vitro antimicrobial activity of the compounds was determined according to the following procedure:
The assay used a 10-points Iso-Sensitest broth medium to measure quantitatively the in vitro activity of the compounds against Acinetobacter baumannii ATCC17961 and ATCC17978.
Stock compounds in DMSO were serially twofold diluted (e.g. range from 50 to 0.097 μM final concentration) in 384 wells microtiter plates and inoculated with 49 μl the bacterial suspension in Iso-Sensitest medium to have a final cell concentration of ˜5×10^(5) CFU/ml in a final volume/well of 50 ul/well. Microtiter plates were incubated at 35±2° C.
Bacterial cell growth was determined with the measurement of optical density at λ=600 nm each minutes over a time course of 16 h. Growth inhibition was calculated during the logarithmic growth of the bacterial cells with determination of the concentration inhibiting 50% (IC50) and 90% (IC90) of the growth.
Table 2 provides the 90% growth inhibitory concentrations (IC90) in micromoles per liter of the compounds of present invention obtained against the strain Acinetobacter baumannii ATCC17961.
In the case of `C[N+](C)(C)CC(=O)NCCCNC(=O)c1ccc(Nc2nccn3c(-c4c[nH]nc4C(F)(F)F)cnc23)cc1Cl` [Example 7, [2-[3-[[2-Chloro-4-[[3-[3-(trifluoromethyl)-1H-pyrazol-4-yl]imidazo[1,2-a]pyrazin-8-yl]amino]benzoyl]amino]propylamino]-2-oxo-ethyl]-trimethyl-ammonium Formate], the IC90 was determined as 1160 nM.
Same read-out and setting: the result for `CCc1cc(Nc2nccn3c(-c4cn(CC(F)F)nc4C(F)(F)F)cnc23)ccc1C(=O)NCCCCC[N+](C)(CC(=O)O)CC1CNC1` (stereo not drawn) [Example 8, azetidin-3-ylmethyl-(carboxymethyl)-[5-[[4-[[3-[1-(2,2-difluoroethyl)-3-(trifluoromethyl)pyrazol-4-yl]imidazo[1,2-a]pyrazin-8-yl]amino]-2-ethyl-benzoyl]amino]pentyl]-methyl-ammonium Formate] reads 600 nM.
Consider `CCc1cc(Nc2nccn3c(-c4ccc(OC(F)F)c(F)c4F)cnc23)ccc1C(=O)N1CCN(C(=O)C2CC[N+](C)(CC(N)=O)CC2)CC1` (stereo not drawn) [Example 9, 1-(2-amino-2-oxoethyl)-4-(4-(4-((3-(4-(difluoromethoxy)-2,3-difluorophenyl)imidazo[1,2-a]pyrazin-8-yl)amino)-2-ethylbenzoyl)piperazine-1-carbonyl)-1-methylpiperidin-1-ium Formate], for which the 90% effect concentration (IC90) was 63.5 nM.
On the same count and under the same terms, the result for `CCc1cc(Nc2nccn3c(-c4ccc(OC(F)F)c(F)c4F)cnc23)ccc1C(=O)NCCC1CC[N+](C)(CC2CNC2)CC1` (stereo not drawn) [Example 10, N-[2-[1-(azetidin-3-ylmethyl)-1-methyl-piperidin-1-ium-4-yl]ethyl]-4-[[3-[4-(difluoromethoxy)-2,3-difluoro-phenyl]imidazo[1,2-a]pyrazin-8-yl]amino]-2-ethyl-benzamide Diformate] reads 157 nM; that for `CCc1cc(Nc2nccn3c(-c4ccc(OC)c(F)c4F)cnc23)ccc1C(=O)NCCCCC[N+](C)(CCCCCN)CC(=O)O` (stereo not drawn) [Example 11, 5-Aminopentyl-(carboxymethyl)-[5-[[4-[[3-(2,3-difluoro-4-methoxy-phenyl)imidazo[1,2-a]pyrazin-8-yl]amino]-2-ethyl-benzoyl]amino]pentyl]-methyl-ammonium 2,2,2-trifluoroacetate], 131 nM; that for `COc1ccc(-c2cnc3c(Nc4ccc(C(=O)N5CCN(C(=O)C[N+](C)(C)C)CC5)c(Cl)c4)nccn23)c(F)c1F` [Example 12, 2-(4-(2-Chloro-4-((3-(2,3-difluoro-4-methoxyphenyl)imidazo[1,2-a]pyrazin-8-yl)amino)benzoyl)piperazin-1-yl)-N,N,N-trimethyl-2-oxoethan-1-aminium Iodide], 44.7 nM.
Turning to `COc1ccc(-c2cnc3c(Nc4cc(C)c(C(=O)NCCOCC[N+](C)(C)C)c(F)c4)nccn23)c(F)c1F` [Example 18, 2-(2-(4-((3-(2,3-Difluoro-4-methoxyphenyl)imidazo[1,2-a]pyrazin-8-yl)amino)-2-fluoro-6-methylbenzamido)ethoxy)-N,N,N-trimethylethan-1-aminium Hydrogen Carbonate], the 90% effect concentration (IC90) worked out at 336 nM.
Turning to `COc1ccc(-c2cnc3c(Nc4ccc(C(=O)N5CCN(C(=O)[C@@H]6C[C@@H](O)C[N+]6(C)C)CC5)c(C)c4)nccn23)c(F)c1F` [Example 55, (2S,4R)-2-(4-(4-((3-(2,3-Difluoro-4-methoxyphenyl)imidazo[1,2-a]pyrazin-8-yl)amino)-2-methylbenzoyl)piperazine-1-carbonyl)-4-hydroxy-1,1-dimethylpyrrolidin-1-ium Formate], the IC90 worked out at 132 nM.
As for `Cc1cc(Nc2nccn3c(-c4ccc(OCC#N)c(F)c4F)cnc23)ccc1C(=O)N1CCN(C(=O)C[N+](C)(C)C)CC1` [Example 56, [2-[4-[4-[[3-[4-(Cyanomethoxy)-2,3-difluorophenyl]imidazo[1,2-a]pyrazin-8-yl]amino]-2-methylbenzoyl]piperazin-1-yl]-2-oxoethyl]-trimethylazanium Iodide], the IC90 was 59.6 nM.
Take `Cc1cc(Nc2nccn3c(-c4ccc(OC(F)F)cc4)cnc23)ccc1C(=O)N(C)CCC1CC[N+](C)(CCCC(=O)O)CC1` (stereo not drawn) [Example 57, 4-[4-[2-[[4-[[3-[4-(Difluoromethoxy)phenyl]imidazo[1,2-a]pyrazin-8-yl]amino]-2-methylbenzoyl]-methylamino]ethyl]-1-methylpiperidin-1-ium-1-yl]butanoic acid Hydrochloride]: the IC90 amounted to 2180 nM.
Same read-out and setting: the value for `C[N+](C)(C)CC(=O)NCCNC(=O)c1ccc(Nc2nccn3c(-c4c[nH]nc4C(F)(F)F)cnc23)cc1Cl` [Example 58, [2-[2-[[2-Chloro-4-[[3-[3-(trifluoromethyl)-1H-pyrazol-4-yl]imidazo[1,2-a]pyrazin-8-yl]amino]benzoyl]amino]ethylamino]-2-oxo-ethyl]-trimethyl-ammonium formate] was 1580 nM; that for `COc1ccc(-c2cnc3c(Nc4ccc(C(=O)N[C@H]5C[C@@H](NC(=O)C[N+](C)(C)C)C5)c(Cl)c4)nccn23)c(F)c1F` [Example 59, [2-[[3-[[2-Chloro-4-[[3-(2,3-difluoro-4-methoxy-phenyl)imidazo[1,2-a]pyrazin-8-yl]amino]benzoyl]amino]cyclobutyl]amino]-2-oxo-ethyl]-trimethyl-ammonium formate] was 41 nM.
Same read-out and setting: the value for `COc1ccc(-c2cnc3c(Nc4ccc(C(=O)NC5CCN(C(=O)C[N+](C)(C)C)CC5)c(C)c4)nccn23)c(F)c1F` [Example 60, 2-(4-(4-((3-(2,3-Difluoro-4-methoxyphenyl)imidazo[1,2-a]pyrazin-8-yl)amino)-2-methylbenzamido)piperidin-1-yl)-N,N,N-trimethyl-2-oxoethan-1-aminium Chloride] was 166 nM.
The same measure, in the same setting: the result for `C[N+](C)(C)CC(=O)N1CCN(C(=O)c2ccc(Nc3nccn4c(-c5c[nH]nc5C(F)(F)F)cnc34)cc2Cl)CC1` [Example 62, [2-[4-[2-Chloro-4-[[3-[3-(trifluoromethyl)-1H-pyrazol-4-yl]imidazo[1,2-a]pyrazin-8-yl]amino]benzoyl]piperazin-1-yl]-2-oxo-ethyl]-trimethyl-ammonium Formate] reads 449 nM.
Turning to `COc1ccc(-c2cnc3c(Nc4ccc(C(=O)N[C@H]5CC[C@@H](NC(=O)C[N+](C)(C)C)CC5)c(C)c4)nccn23)c(F)c1F` [Example 63, 2-(((1s,4s)-4-(4-((3-(2,3-Difluoro-4-methoxyphenyl)imidazo[1,2-a]pyrazin-8-yl)amino)-2-methylbenzamido)cyclohexyl)amino)-N,N,N-trimethyl-2-oxoethan-1-aminium Chloride], the IC90 came to 81.1 nM.
On the same count and under the same terms, the result for `Cc1cc(Nc2nccn3c(-c4cn(CC#N)nc4C(F)(F)F)cnc23)ccc1C(=O)N1CCN(C(=O)C[N+](C)(C)C)CC1` [Example 64, [2-[4-[4-[[3-[1-(Cyanomethyl)-3-(trifluoromethyl)pyrazol-4-yl]imidazo[1,2-a]pyrazin-8-yl]amino]-2-methyl-benzoyl]piperazin-1-yl]-2-oxo-ethyl]-trimethyl-ammonium Formate] reads 780 nM; that for `C[N+](C)(C)CC(=O)N1CCN(C(=O)c2ccc(Nc3nccn4c(-c5cn(CC#N)nc5C(F)(F)F)cnc34)cc2Cl)CC1` [Example 65, [2-[4-[2-Chloro-4-[[3-[1-(cyanomethyl)-3-(trifluoromethyl)pyrazol-4-yl]imidazo[1,2-a]pyrazin-8-yl]amino]benzoyl]piperazin-1-yl]-2-oxo-ethyl]-trimethyl-ammonium Formate], 546 nM; that for `COc1ccc(-c2cnc3c(Nc4ccc(C(=O)N[C@H]5C[C@@H](NCC[N+](C)(C)C)C5)c(Cl)c4)nccn23)c(F)c1F` [Example 66, 2-[[3-[[2-Chloro-4-[[3-(2,3-difluoro-4-methoxy-phenyl)imidazo[1,2-a]pyrazin-8-yl]amino]benzoyl]amino]cyclobutyl]amino]ethyl-trimethyl-ammonium Formate], 57.2 nM.
The same measure, in the same setting: the result for `COc1ccc(-c2cnc3c(Nc4ccc(C(=O)N[C@H]5CCN(C(=O)C[N+](C)(C)C)C5)c(C)c4)nccn23)c(F)c1F` [Example 67, (S)-2-(3-(4-((3-(2,3-Difluoro-4-methoxyphenyl)imidazo[1,2-a]pyrazin-8-yl)amino)-2-methylbenzamido)pyrrolidin-1-yl)-N,N,N-trimethyl-2-oxoethan-1-aminium Chloride] reads 44.8 nM; that for `COc1ccc(-c2cnc3c(Nc4ccc(C(=O)NC5CCCN(C(=O)C[N+](C)(C)C)C5)c(C)c4)nccn23)c(F)c1F` (stereo not drawn) [Example 68, 2-(3-(4-((3-(2,3-Difluoro-4-methoxyphenyl)imidazo[1,2-a]pyrazin-8-yl)amino)-2-methylbenzamido)piperidin-1-yl)-N,N,N-trimethyl-2-oxoethan-1-aminium Chloride], 168 nM.

The same assay, now with this note: Acinetobacter baumannii, ATCC17961, 16 h, read-out: ATCC 17961 IC90.
As for `C[N+](C)(C)CC(=O)N[C@H]1C[C@@H](NC(=O)c2ccc(Nc3nccn4c(-c5c[nH]nc5C(F)(F)F)cnc34)cc2Cl)C1` [Example 61, [2-[[3-[[2-Chloro-4-[[3-[3-(trifluoromethyl)-1H-pyrazol-4-yl]imidazo[1,2-a]pyrazin-8-yl]amino]benzoyl]amino]cyclobutyl]amino]-2-oxo-ethyl]-trimethyl-ammonium Formate], the concentration for an effect of 90% (IC90) amounted to 478 nM.
